What was measured:
TrkB = molecular target: T1, TrkB (Homo sapiens, UniProt Q16620); assay: TrkB tyrosine kinase inhibition, recombinant enzyme, polyGluTyr phosphorylation (33P-ATP filter assay); assay type: biochemical; details: kinase domain of human TrkB (amino acids 526-838), His-fusion; 0.1 mg/ml PGT, 30 uM ATP, 1 hour at 30° C.
T1 construct: The kinase domain of the human TrkB receptor (amino acids 526-838); His; purchased Invitrogen; host or cells: insect cells
Experimental: The ability of compounds of the invention to inhibit tyrosine kinase activity of TrkB may be measured using a recombinant enzyme in an assay that measures the ability of compounds to inhibit the phosphorylation of the exogenous substrate, polyGluTyr (PGT, 4:1). The kinase domain of the human TrkB receptor (amino acids 526-838) is expressed in insect cells as a histidine (His)-fusion protein and is commercially available from Invitrogen™. The enzyme assay is performed in a 96-well plate. Test compounds are first dissolved in dimethylsulfoxide (DMSO) and then serially-diluted in a 96-well plate. The serially-diluted compounds are transferred to the 96-well assay plate so that the final concentration of DMSO in the enzyme assay is 1.64%. All assay components are diluted in phosphorylation buffer (20 mm MOPS, 10 mM MgCl2, 1 mM EDTA, 0.015% Brij-35, 0.1 mg/ml BSA, 0.0025% Beta-Mercaptoethanol). The recombinant enzyme is added to the assay plate containing test compound and the reaction is initiated with a substrate solution containing a final concentration of 0.1 mg/ml PGT, 30 uM ATP, and 0.008 mCi/ml ^33P-gammaATP (3000 Ci/mmol)(Perkin Elmer™) After a 1 hour incubation at 30° C., the reaction is terminated with 10% TCA and incubated at 4° C. for 1 hour. The reaction is filtered onto a Unifilter® GF/C™ filter plate that has been presoaked with 0.1 M NaPyrophosphate. Microscint-20 is then added to the dried filter plate and the captured ^33P-phosphorylated PGT is quantitated on a microscintillation plate counter (TopCount·NXT™).

TrkA = molecular target: T2, TrkA (Homo sapiens, UniProt P04629); assay: TrkA tyrosine kinase inhibition, recombinant enzyme, polyGluTyr phosphorylation (33P-ATP filter assay); assay type: biochemical; details: kinase domain of human TrkA, His-fusion; 0.1 mg/ml PGT, 30 uM ATP, 1 hour at 30° C.
T2 construct: The kinase domain of the human TrkA receptor is expressed in Sf9 insect cells as a histidine (His)-fusion protein; His; made in house; host or cells: Sf9 insect cells (baculovirus)
T2 sequence (P04629 510-781 limits assumed): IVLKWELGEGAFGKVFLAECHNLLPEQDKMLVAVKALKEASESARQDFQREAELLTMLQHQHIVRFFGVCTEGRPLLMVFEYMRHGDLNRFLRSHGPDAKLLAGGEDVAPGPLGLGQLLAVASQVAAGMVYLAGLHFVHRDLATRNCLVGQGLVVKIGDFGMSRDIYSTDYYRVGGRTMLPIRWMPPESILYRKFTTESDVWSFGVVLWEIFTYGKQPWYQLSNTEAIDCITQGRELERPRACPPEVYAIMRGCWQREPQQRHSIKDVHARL
Text: The ability of compounds of the invention to inhibit tyrosine kinase activity of TrkA may be measured using a recombinant enzyme in an assay that measures the ability of compounds to inhibit the phosphorylation of the exogenous substrate, polyGluTyr (PGT, 4:1). The kinase domain of the human TrkA receptor is expressed in Sf9 insect cells as a histidine (His)-fusion protein using a baculovirus expression system. The protein is purified from the lysates of these cells using an Ni-NTA affinity column. After the recombinant enzyme is purified, it is activated by incubation with cold ATP. The enzyme assay is performed in a 96-well plate. Test compounds are first dissolved in dimethylsulfoxide (DMSO) and then serially-diluted in a 96-well plate. The serially-diluted compounds are transferred to the 96-well assay plate so that the final concentration of DMSO in the enzyme assay is 1.64%. All assay components are diluted in phosphorylation buffer (20 mm MOPS, 10 mM MgCl2, 1 mM EDTA, 0.015% Brij-35, 0.1 mg/ml BSA, 0.0025% Beta-Mercaptoethanol). The recombinant enzyme is added to the assay plate containing test compound and the reaction is initiated with a substrate solution containing a final concentration of 0.1 mg/ml PGT, 30 uM ATP, and 0.008 mCi/ml ^33P-gammaATP (3000 Ci/mmol). After a 1 hour incubation at 30° C., the reaction is terminated with 10% TCA and incubated at 4° C. for 1 hour. The reaction is filtered onto a Unifilter® GF/C™ filter plate that has been presoaked with 0.1 M NaPyrophosphate. Microscint-20 is then added to the dried filter plate and the captured ^33P-phosphorylated PGT is quantitated on a microscintillation plate counter (TopCount·NXT™).

T1 sequence (Q16620 510-822): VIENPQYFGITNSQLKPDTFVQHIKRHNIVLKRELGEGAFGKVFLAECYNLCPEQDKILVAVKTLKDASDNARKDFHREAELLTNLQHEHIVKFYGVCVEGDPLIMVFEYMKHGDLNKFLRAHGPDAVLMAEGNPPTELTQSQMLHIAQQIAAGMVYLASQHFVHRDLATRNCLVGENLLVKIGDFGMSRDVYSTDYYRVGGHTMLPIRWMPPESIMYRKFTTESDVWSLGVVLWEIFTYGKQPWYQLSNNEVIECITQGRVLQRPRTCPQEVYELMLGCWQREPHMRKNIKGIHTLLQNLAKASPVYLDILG

SMILES | IC50 (TrkB) [nM] | IC50 (TrkA) [nM]
CC(C)c1cc(C(=O)c2cccc(NC(=O)Nc3ccc(Cl)cc3Cl)c2)c2c(N)ncnn12 [Example 1, 1-{3-[(4-amino-7-isopropylpyrrolo [2,1-f][1,2,4]triazin-5-yl)carbonyl]phenyl}-3-(2,4-dichlorophenyl)urea] | 1 | 
CC(C)c1cc(C(=O)c2cccc(NC(=O)Nc3ccccc3)c2)c2c(N)ncnn12 [Example 9, 1-{3-[(4-amino-7-isopropyl-pyrrolo[2,1-f][1,2,4]triazin-5-yl)carbonyl]phenyl}-3-phenylurea] | < 1 | 2
CC(C)c1cc(C(=O)c2cccc(NC(=O)Nc3ccc(OCc4ccccc4)cc3)c2)c2c(N)ncnn12 [Example 33, 1-{3-[(4-amino-7-isopropyl-pyrrolo[2,1-f][1,2,4]triazin-5-yl)carbonyl]phenyl}-3-[4-(benzyloxy)phenyl]urea] | 1 | 2
CC(C)c1cc(C(=O)c2cccc(NC(=O)NCC3CCCCC3)c2)c2c(N)ncnn12 [Example 37, 1-{3-[(4-amino-7-isopropyl-pyrrolo[2,1-f][1,2,4]triazin-5-yl)carbonyl]phenyl}-3-(cyclohexylmethyl)urea] | 36 | 17
CC(C)c1cc(C(=O)c2cccc(NC(=O)Nc3ccc4ccccc4c3)c2)c2c(N)ncnn12 [Example 46, 1-{3-[(4-amino-7-isopropyl-pyrrolo[2,1-f][1,2,4]triazin-5-yl)carbonyl]phenyl}-3-(2-naphthyl)urea] | 1 | < 1
CC(C)c1cc(C(=O)c2cccc(NC(=O)NCCCc3ccccc3)c2)c2c(N)ncnn12 [Example 61, 1-{3-[(4-amino-7-isopropyl-pyrrolo[2,1-f][1,2,4]triazin-5-yl)carbonyl]phenyl}-3-(3-phenylpropyl)urea] | 8 | 21
CC(C)c1cc(C(=O)c2cccc(NC(=O)Nc3ccncc3)c2)c2c(N)ncnn12 [Example 63, 1-{3-[(4-amino-7-isopropyl-pyrrolo[2,1-f][1,2,4]triazin-5-yl)carbonyl]phenyl}-3-pyridin-4-ylurea] | 15 | 9
CN(C)CCCc1cc(C(=O)c2cccc(NC(=O)Nc3ccc(Cl)cc3Cl)c2)c2c(N)ncnn12 [Example 67, 1-[3-({4-amino-7-[3-(dimethylamino)propyl]Pyrrolo[2,1-f][1,2,4]triazin-5-yl}carbonyl)phenyl]-3-(2,4-dichlorophenyl)urea] | 1 | 3
